Measurements reported in patent publication US8865750B2, “Small molecule inhibitors of RGS proteins” (The Regents of The University of Michigan, priority 2011, dated 2014).
Values after ≈ are worked out from the molar mass of the structure shown.

How the values were obtained:
107C RGS8 (C160S) = 107C RGS8 (C160S) (Homo sapiens (Human), UniProt P57771, C160S); experiment: FCPIA: RGS8 mutant 107C; assay type: binding
Procedure: (§1) With the exception of RGS8 mutants, all RGS and G proteins were prepared as previously described (Roman, D., et al., Mol Pharmacol). […] Mutagenesis was performed using the QuickChange Multi-site Directed Mutagenesis kit (Agilent, La Jolla Calif.).
(§2) This protein only contains two cysteines in the RGS homology domain, making it a simpler model system to study than other RGS proteins. Each cysteine from the RGS8 RGS homology (RH) domain was individually mutated to serine and the activity of the compound was analyzed via FCPIA (FIG. 6).

Solubility experiments = assay type: physicochemical; conditions: water; aqueous
Procedure: Compounds were diluted to 100 mM in DMSO and the further diluted to 500 μM in H2O, vortexed and centrifuged for 10 minutes at 13,000×g at ambient temperature.

RGS8 = RGS8 (Homo sapiens (Human), UniProt P57771); experiment: FCPIA: Gαo binding to RGS8
From the text: FCPIA Dose Response and Reversibility Experiments:

HEK-293 cells = experiment: WST-1 cell viability; assay type: cell-based; conditions: up to 100 μM, overnight
Procedure: WST-1 Cell Viability Studies:
HEK-293 cells were plated to a density of 30,000/well in 96-well plates and grown for 48 hours in Dulbecco's Modified Eagle Medium (DMEM) containing 10% fetal bovine serum and Penicillin (100 units/ml)-Streptomycin (100 μg/ml) under 5% CO2 at 37° C. Compound treatment was performed overnight in DMEM containing 0.1% bovine serum albumin under 5% CO2 at 37° C. After compound incubation ten microliters of the WST-1 reagent (Hoffmann-La Roche, Switzerland) was added to every well and the cells were incubated for 1 hour under 5% CO2 at 37° C. Absorbance was measured at 450 nm using a Victor II plate reader (Perkin-Elmer, Picastaway, N.J.).

160C RGS8 (C107S) = 160C RGS8 (C107S) (Homo sapiens (Human), UniProt P57771, C107S); experiment: FCPIA: RGS8 mutant 160C; assay type: binding
Procedure: as §1, §2

δ-opioid receptor = experiment: cAMP accumulation in SH-SY5Y cells, SNC80; assay type: cell-based
Procedure: (§3) Accumulated cAMP was measured by radioimmunoassay in a 10-15 μl aliquot of the supernatant from each sample following the manufacturer's instructions (cAMP radioimmunoassay kit from GE Healthcare, Piscataway, N.J.). Data are from four separate experiments, each carried out in duplicates and calculated as percent inhibition.
as §3, with “Cells were plated into 24-well plates to reach ˜90% confluency on the day of assay and washed once with fresh serum-free medium. […] Accumulated” for “Accumulated”

Chain of 160C RGS8 (C107S) (P57771 other isoform, or with tags, fused parts or gaps C107S): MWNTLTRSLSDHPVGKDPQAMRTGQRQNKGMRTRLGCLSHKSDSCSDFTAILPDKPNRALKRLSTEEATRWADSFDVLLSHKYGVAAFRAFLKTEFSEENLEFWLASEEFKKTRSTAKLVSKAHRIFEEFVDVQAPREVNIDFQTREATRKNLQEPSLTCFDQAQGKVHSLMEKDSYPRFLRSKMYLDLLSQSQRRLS
Chain of RGS8 (P57771 other isoform, or with tags, fused parts or gaps): as the sequence (P57771 other isoform, or with tags, fused parts or gaps C107S) above, with S107C counted along it
Chain of 107C RGS8 (C160S) (P57771 other isoform, or with tags, fused parts or gaps C160S): as the sequence (P57771 other isoform, or with tags, fused parts or gaps C107S) above, with S107C, C160S counted along it

Cc1ccc(-n2sc(=O)n(Cc3ccc(F)cc3)c2=O)cc1 [CCG-50014, 4-[(4-fluorophenyl)methyl]-2-(4-methylphenyl)-1,2,4-thiadiazolidine-3,5-dione]
inhibition at 20 µM (107C RGS8 (C160S); 20 μM, all time points, read-out: irreversible inhibition of 107C RGS8): ~20% | IC50 (107C RGS8 (C160S); FIG. 6): 46.5 µM | solubility (Solubility experiments): ~100 µM (≈ 31.6 µg/mL) | IC50 (RGS8; Table 2, mean of two independent FCPIA experiments, read-out: RGS8 IC50): 1.1 µM | Ki (RGS8; read-out: experimentally derived Ki value): 0.3 µM | cell viability (WST-1) (HEK-293 cells): did not reduce cell viability below control levels | inhibition at 20 µM (160C RGS8 (C107S); 20 μM, all time points, read-out: irreversible inhibition of 160C RGS8): ~50% | IC50 (160C RGS8 (C107S); FIG. 6): 0.71 µM | inhibition of forskolin-stimulated adenylate cyclase by SNC-80 with compound (δ-opioid receptor; 100 nM SNC-80 + 100 μM CCG-50014): 44% | effect on forskolin-stimulation of cAMP production (δ-opioid receptor; 100 μM): no effect
